IC50 data for 23 molecules are collected here from BindingDB's records for doi:10.1021/acs.jmedchem.0c01882 (Reviral, 2021).

Structures are written as SMILES.

The nature of this assay: Inhibition of Respiratory syncytial virus A2 fusion protein expressed in HEK293T cells harboring GAL4-NF-kappaB assessed as reduction in cell-cell fusion by luciferase assay.

As for `CC(C)CCn1c(CN2C(=O)C3(CC3)c3ccccc32)nc2cc(CN)ccc21`, the IC50 (as a rule, the point on the concentration scale where inhibition reaches its midpoint) was 0.4 nM.

With `CC(C)CCn1c(CN2C(=O)C3(CC3)c3c(Cl)cccc32)nc2cc(CN)ccc21`, the IC50 is 11 nM.

As for `CC(C)CCn1c(CN2C(=O)C3(CC3)c3cc(F)ccc32)nc2cc(CN)ccc21`, the concentration for half-maximal inhibition (IC50) came out at 0.7 nM.

For `CC(C)CCn1c(CN2C(=O)C3(CC3)c3cc(Cl)ccc32)nc2cc(CN)ccc21`, the concentration for half-maximal inhibition (IC50) came to 4.5 nM.

Consider `CC(C)CCn1c(CN2C(=O)C3(CC3)c3ccc(F)cc32)nc2cc(CN)ccc21`, for which the IC50 amounted to 0.5 nM.

With `CC(C)CCn1c(CN2C(=O)C3(CC3)c3ccc(Cl)cc32)nc2cc(CN)ccc21`, the 50% inhibitory concentration (IC50) is 1.2 nM.

Take `CC(C)CCn1c(CN2C(=O)C3(CC3)c3cccc(Cl)c32)nc2cc(CN)ccc21`: the IC50 turned out to be 47 nM.

For `CC(C)CCn1c(CN2C(=O)C3(CC3)c3cccc(F)c32)nc2cc(CN)ccc21`, the IC50 was 1.3 nM.

For `CS(=O)(=O)CCCn1c(CN2C(=O)C3(CC3)c3ccc(F)cc32)nc2cc(CN)ccc21`, the IC50 is 2.6 nM.

As to `NCc1ccc2c(c1)nc(CN1C(=O)C3(CC3)c3ccc(F)cc31)n2CCCCO`, the IC50 came to 1.5 nM.

On to `NCc1ccc2c(c1)nc(CN1C(=O)C3(CC3)c3cccc(F)c31)n2CCCC(F)(F)F`, for which the IC50 was found to be 1 nM.

As for `NCc1ccc2c(c1)nc(CN1C(=O)C3(CC3)c3ccc(F)cc31)n2C1CCC(O)CC1` (stereo not drawn), the IC50 was determined as 2.6 nM.

Consider `NCc1ccc2c(c1)nc(CN1C(=O)C3(CC3)c3ccc(F)cc31)n2C1CCOCC1`, for which the IC50 amounted to 1.2 nM.

For the molecule `N=C(N)c1ccc2c(c1)nc(CN1C(=O)C3(CC3)c3ccc(F)cc31)n2CCCC(F)(F)F`, the IC50 was 3 nM.

As to `CCNC(=N)c1ccc2c(c1)nc(CN1C(=O)C3(CC3)c3ccc(F)cc31)n2CCCC(F)(F)F`, the IC50 is 641 nM.

Take `N=C(N)NCc1ccc2c(c1)nc(CN1C(=O)C3(CC3)c3ccc(F)cc31)n2CCCC(F)(F)F`: the IC50 came to 183 nM.

As to `NC(=O)c1ccc2c(c1)nc(CN1C(=O)C3(CC3)c3ccc(F)cc31)n2CCCC(F)(F)F`, the concentration for half-maximal inhibition (IC50) is 71 nM.

As for `O=C(O)c1ccc2c(c1)nc(CN1C(=O)C3(CC3)c3ccc(F)cc31)n2CCCC(F)(F)F`, the IC50 was over 25000 nM.

As for `CS(=O)(=O)c1ccc2c(c1)nc(CN1C(=O)C3(CC3)c3ccc(F)cc31)n2CCCC(F)(F)F`, the IC50 turned out to be 1070 nM.

For the molecule `CC(=O)NCc1ccc2c(c1)nc(CN1C(=O)C3(CC3)c3ccc(F)cc31)n2CCCC(F)(F)F`, the IC50 came out at 365 nM.

On to `O=C1N(Cc2nc3ccccc3n2CCCC(F)(F)F)c2cc(F)ccc2C12CC2`, for which the IC50 was determined as 37 nM.

In the case of `O=C1N(Cc2nc3cc(Cl)ccc3n2CCCC(F)(F)F)c2cc(F)ccc2C12CC2`, the IC50 was 6.2 nM.

As to `NCc1ccc2c(c1)nc(CN1C(=O)C3(CC3)c3ccc(F)cc31)n2CCCC(F)(F)F` [Sisunatovir], the IC50 worked out at 0.9 nM.
